Key:
[1] = tested on: female BL6 wild-type mice; test: Comparison of ability to penetrate the skin barrier of mice (hyaluronan staining; treated vs untreated area); assay type: in vivo, mouse
Source text: HA-PE-2, prepared as described in Example 3, hyaluronan mixed with, but not covalently linked to, lipids in the lecithins present in Example 3 (see Example 1), and hyaluronan alone (no additional phospholipid), were each formulated with a NIVEA Creme cosmetic base cream (1:1, v/v) as described in Example 4. The creams were then applied to the shaved backs (0.18 g HA-PE-2/application, 40×30 mm shaved area) of 9-month old female BL6 wild-type mice once daily for 4 days. After this time, one group of animals was euthanized and processed according to the procedure described in Example 9. A second group of animals were left without further treatment for an additional […] and euthanized/processed as described in Example 9 on day 7.
Since the amount of endogenous hyaluronan in skin can vary with location, internal controls were designed to evaluate hyaluronan staining of treated and control skin were developed to confirm the difference between the treated vs. untreated skin area. HA-PE-2 and control creams (hyaluronan only) were applied to the shaved backs of mice as previously described. Areas of treatment were marked (hair in the adjacent untreated margins was removed with Nair™ and the punch aligned to include the treated and untreated region; tissue punches were orientated in small tissue baskets to keep the tissue in the correct orientation throughout processing and marked with a histology marker pen) and tissue was harvested/processed as previously described (Example 9).

[2] = tested on: senescent human fibroblasts; test: Percent of cells with hyaluronan coats and coat size in senescent human fibroblasts; assay type: cell-based; conditions: FIG. 2
Procedure: Modified hyaluronan (HA-PE-1), prepared according to Example 2, or hyaluronan alone (350 kDA; 10 mg/mL stock solution in saline) was added to senescent human fibroblasts in increasing concentrations (0-100 μg/mL).
The effect of the addition of modified hyaluronan (HA-PE-1; 50 μg/mL) vs. hyaluronan alone (50 μg/mL) on the cell coat area of the cells was quantified using image analysis (Elements 3.1, Nikon). […] Values are means and S.E.M. for 10 samples.

skin barrier = conditions: Kaya et al.; cited from earlier work
human dermal fibroblasts = test: Hyaluronan cell coats on cultured human dermal fibroblasts (fluorescent nanosphere exclusion); assay type: cell-based; conditions: hyaluronan 500 μg/mL (350 kDa) or HA-PE-1 25 μg/mL, 1 hour; compared to PBS control; FIG. 1
Procedure: The suitability of the present compositions was assessed by determining its ability to encase/surround cultured dermal fibroblasts grown from a punch biopsy of human skin. Punch biopsies were placed in a sterile tissue culture dish (35×10 mm, tissue culture dish) and cut with small (e.g., 19 G) sterile needles into small fragments. The fragments were allowed to dry briefly (e.g., no more than 10 minutes) to the bottom of the tissue culture dish to promote adherence of the tissue fragments. Dulbecco's modified Eagles Medium (DMEM), supplements with 10% fetal calf serum (FCS) was then gently added and the culture is then placed in a humidified 37° C. incubator supplemented with 5% CO2 for approximately one week. […]
In the images shown in FIG. 1, the hyaluronan cell coat is observed as a dark space since small fluorescent beads are excluded by the coat as denoted by the arrow within the image. Cells without coats […] are entirely covered by the fluorescent beads.

## hyaluronan
[1]; creams once daily for 4 days, p<0.000001, FIG. 9, 10
  hyaluronan staining / hyaluronan penetrating the skin barrier: negligible amounts of hyaluronan penetrating the skin barrier
[1]; day 7, treatment stopped after day 4, FIG. 9, 10
  hyaluronan staining in keratinocytes following cessation of treatment: remained negligible
[1]; internal control, p<0.000001, FIG. 11, 12
  hyaluronan staining at the application edge, treated vs untreated area of skin: a distinct margin of staining was not observed
[2]; 0-100 μg/mL
  concentration at which the percentage of cells with coats reached a plateau: 10 µg/mL
[2]; increasing concentrations 0-100 μg/mL
  percentage of cells that exhibited hyaluronan coats: fewer cells with hyaluronan coats
Skin barrier
  retention in skin of topically applied hyaluronan (literature): poorly retained in the epidermal layer
Human dermal fibroblasts
  size of the hyaluronan coat (exclusion of fluorescent beads): little additional effect

Reference: patent publication US10131717B2, “Topically administered, skin-penetrating glycosaminoglycan formulations suitable for use in cosmetic and pharmaceutical applications” (London Health Sciences Centre Research Inc., priority 2010, dated 2018)
